Read-outs that look alike come from different tables or passages of the source.
Key:
[1] = tested on: Normal human keratinocytes; assay: 3H-thymidine incorporation (DNA synthesis) / proliferation of keratinocytes; type: cell-based
From the text: The incorporation of ^3 H-thymidine by cultured cells was used as an assay of cell proliferation (both for ZR75 cells and for keratinocytes). Thymidine is one of four deoxynucleosides which are the monomeric units of DNA. Prior to cell division of a somatic cell, the complete genome of the cell undergoing cell division is replicated. This involves large scale DNA synthesis by the cell and enables both daughter cells to receive identical copies of the genetic material. When ^3 H-thymidine is included in the culture media of cells which are synthesizing DNA in preparation for cell division then the labeled thymidine is incorporated into the newly synthesized DNA. The extent of incorporation of ^3 H-thymidine into a population of cells is proportional to the rate of DNA synthesis by this population of cells and therefore an indication of their cellular proliferation.
1. Normal human keratinocytes isolated from neonatal foreskins by trypsin treatment were grown in Dulbecco's modified Eagle's medium (DME)/5% fetal calf serum in the presence of mitomycin C treated 3T3 mouse fibroblasts for establishing dividing keratinocyte colonies. Keratinocytes were grown under the above condition until their third passage.
2. For the experiments, third passage keratinocytes were plated into a serum-free keratinocyte growth medium (KGM; obtained from Clonetics, San Diego, Calif.) containing 0.09 mM calcium. About 30,000 cells were plated into each well of 6 well cell culture plates and grown for 5 days, until the cells reach about 40% confluence.
3. Medium was changed to fresh medium (KBM; obtained from Clonetics) and resveratrol at various concentrations as indicated in Table 2 was added to the medium from a DMSO (Dimethylsulfoxide) stock solution. The final DMSO concentration in the cultures was 0.1%. Control cultures received no resveratrol but were dosed with 0.1% DMSO. Each concentration was tested in three separate wells. After four hours, 1 μCi of ^3 H-thymidine (Amersham Corp., Sp activity 40 Ci/mmol) was added to 1 ml of medium in each well. The cells were incubated for 2 hours. The amount of ^3 H-thymidine associated with the cellular DNA of keratinocytes was assessed as described below.
4. The medium was aspirated, and the wells washed with 1 ml PBS. The DNA and proteins of the cells in the plate were then precipitated by adding 1 ml of ice-cold 10% TCA. The plates were left on ice for 30 minutes to complete the precipitation process. TCA was then aspirated and each well was then washed 4 times with 5% TCA. The cells in the wells were dissolved in 0.5 ml of […] sodium hydroxide. 200 μl was then transferred to a scintillation vial for assessing thymidine incorporation and 25 μl was used for a protein assay using BCA protein assay reagent as described below. 5 ml of a scintillation fluid (Scintiverse) was added to the rest of the solution in the vial, and the vials were counted in a scintillation counter to determine the amount of radioactivity in each vial.
BCA (Bicinchoninic Acid)--Protein Assay
25 μl of cell suspension were placed in a 96 well plate. Standards of BSA (bovine serum albumin) in 0.1N Sodium Hydroxide were also pipetted in triplicate in the same 96 well plate. Pierce BCA protein assay reagent was added (200 μl/well) and plate was incubated for 2 hours at room temperature. Absorbance was read at a wavelength of 570 nm on a Dynatech MR7000 plate reader.
The DNA synthesis rate was then calculated as cpm ^3 H-thymidine incorporated into total cellular DNA/μg of cell protein for each individual well. Mean and standard deviation for each group were also calculated. These numbers were also expressed as percent of control wells. Each data point is expressed as mean of triplicate wells±standard deviation.
The results that were obtained are summarized in Table 2. p values of less than […] were considered to indicate statistical significance.
Example 2 was repeated at various additional concentrations of resveratrol.

[2] = tested on: human promyelocytic leukemia cells; conditions: Jang et al., Science 275: 218-220, 1997; cited from earlier work
[3] = tested on: cyclo-oxygenase; conditions: known; cited from earlier work

In the case of `Oc1ccc(/C=C/c2cc(O)cc(O)c2)cc1` [Resveratrol, 3,4'5-stilbenetriol], the inhibition at 50 µM ([1]; Homo sapiens, Keratinocyte, Table 2 Experiment 1, 50 μM) is reported as 98%, the inhibition at 0.78 µM ([1]; Homo sapiens, Keratinocyte, Table 2 Experiment 2, 0.78 μM) is reported as 33% and the inhibition at 1.56 µM ([1]; Homo sapiens, Keratinocyte, Table 2 Experiment 2, 1.56 μM, read-out: % inhibition (DNA synthesis)) is reported as 48%. For the same compound, the inhibition at 3.12 µM ([1]; Homo sapiens, Keratinocyte, Table 2 Experiment 2, 3.12 μM) was 70%, the inhibition at 6.25 µM ([1]; Homo sapiens, Keratinocyte, Table 2 Experiment 2, 6.25 μM) was 86% and the inhibition at 12.5 µM ([1]; Homo sapiens, Keratinocyte, Table 2 Experiment 2, 12.5 μM) was 94%. It also gave an inhibition at 25 µM ([1]; Homo sapiens, Keratinocyte, Table 2 Experiment 2, 25 μM) of 97%, an inhibition at 50 µM ([1]; Homo sapiens, Keratinocyte, Table 2 Experiment 2, 50 μM) of 97% and an inhibition at 0.1 µM ([1]; Homo sapiens, Keratinocyte, Table 3, 0.1 μM) of 5%. For the same compound, the inhibition at 0.2 µM ([1]; Homo sapiens, Keratinocyte, Table 3, 0.2 μM) was 12%, the inhibition at 0.3 µM ([1]; Homo sapiens, Keratinocyte, Table 3, 0.3 μM) was 7% and the inhibition at 0.4 µM ([1]; Homo sapiens, Keratinocyte, Table 3, 0.4 μM) was 14%. It also gave an inhibition at 0.6 µM ([1]; Homo sapiens, Keratinocyte, Table 3, 0.6 μM) of 6%, an inhibition at 0.8 µM ([1]; Homo sapiens, Keratinocyte, Table 3, 0.8 μM) of 30% and an inhibition at 1 µM ([1]; Homo sapiens, Keratinocyte, Table 3, 1.0 μM) of 40%. The inhibition at 2 µM ([1]; Homo sapiens, Keratinocyte, Table 3, 2.0 μM) was 59%, the inhibition at 1.56 µM ([1]; Homo sapiens, Keratinocyte, 1.56 μM, read-out: reduced keratinocyte proliferation) was roughly 50% and the “DNA synthesis (cpm/μg protein)” value ([1]; Table 2 Experiment 1, 50 μM) was 0.62 ± 0.09 cpm/μg protein. For the same compound, the “DNA synthesis (cpm/μg protein)” value ([1]; Table 2 Experiment 2, 0.78 μM) was 11.57 ± 1.7 cpm/μg protein, the “DNA synthesis (cpm/μg protein)” value ([1]; Table 2 Experiment 2, 1.56 μM) was 8.89 ± 1.12 cpm/μg protein and the “DNA synthesis (cpm/μg protein)” value ([1]; Table 2 Experiment 2, 3.12 μM) was 5.11 ± 0.27 cpm/μg protein. For the same compound, the “DNA synthesis (cpm/μg protein)” value ([1]; Table 2 Experiment 2, 6.25 μM) was 2.45 ± 0.56 cpm/μg protein, the “DNA synthesis (cpm/μg protein)” value ([1]; Table 2 Experiment 2, 12.5 μM) was 1.07 ± 0.11 cpm/μg protein and the “DNA synthesis (cpm/μg protein)” value ([1]; Table 2 Experiment 2, 25 μM) was 0.58 ± 0.05 cpm/μg protein. For the same compound, the “DNA synthesis (cpm/μg protein)” value ([1]; Table 2 Experiment 2, 50 μM) was 0.44 ± 0.12 cpm/μg protein, the “DNA synthesis (cpm/μg protein)” value ([1]; Table 3, 0.1 μM) was 60.4 ± 4.1 cpm/μg protein and the “DNA synthesis (cpm/μg protein)” value ([1]; Table 3, 0.2 μM) was 56.3 ± 3.0 cpm/μg protein. The “DNA synthesis (cpm/μg protein)” value ([1]; Table 3, 0.3 μM) was 58.8 ± 0.4 cpm/μg protein, the “DNA synthesis (cpm/μg protein)” value ([1]; Table 3, 0.4 μM) was 54.2 ± 1.2 cpm/μg protein and the “DNA synthesis (cpm/μg protein)” value ([1]; Table 3, 0.6 μM) was 59.3 ± 5.5 cpm/μg protein. For the same compound, the “DNA synthesis (cpm/μg protein)” value ([1]; Table 3, 0.8 μM) was 44.4 ± 2.6 cpm/μg protein, the “DNA synthesis (cpm/μg protein)” value ([1]; Table 3, 1.0 μM) was 37.7 ± 4.0 cpm/μg protein and the “DNA synthesis (cpm/μg protein)” value ([1]; Table 3, 2.0 μM) was 25.7 ± 2.4 cpm/μg protein. The “inhibition of DNA synthesis” value ([1]; both experiments, 50 μM) was “inhibited DNA synthesis completely”, the “DNA synthesis of keratinocytes” value ([1]; concentrations as low as 1.56 μM) was “decreased DNA synthesis of keratinocytes significantly” and the reducing keratinocyte proliferation ([1]; concentrations lower than 0.8 μm (0.000018 wt. %)) was “not effective at reducing keratinocyte proliferation”. For the same compound, the “differentiation of human promyelocytic leukemia cells” value [2] was “induce differentiation of human promyelocytic leukemia cells” and the cyclo-oxygenase inhibition [3] was “known cyclo-oxygenase inhibitor”.

— patent US6270780A, “Cosmetic compositions containing resveratrol” (Chesebrough-Pond's USA Co., division of Conopco, priority 1998, dated 2001)
